In assay [1] the test system is antibodies in sera from SARS patients (sera 1a, 1b, 2, 6, 37, 62, London, SARS-yellow, SARS-green). It counts as binding, human. Also on record: Binding of serum 6 to linear peptides of protein X1 of SARS-CoV Urbani / Binding of serum 37 to linear peptides of protein X1 of SARS-CoV Urbani / Binding of serum 6 to looped/cyclic peptide (PEPSCAN-ELISA) / Binding of serum 37 to looped/cyclic peptide (PEPSCAN-ELISA) / Binding of serum 37 to looped/cyclic peptides of protein X1 of SARS-CoV Urbani / Binding of serum 6 to linear peptides of protein X2 / Binding of serum 37 to linear peptides of protein X2 / Binding of serum 37 to looped/cyclic peptides of protein X2 of SARS-CoV Urbani / Binding of serum 6 to linear peptides of protein M of SARS-CoV Urbani / Binding of serum 37 to linear peptides of protein M of SARS-CoV Urbani / Binding of serum 6 to looped/cyclic peptides of protein M of SARS-CoV Urbani / Binding of serum 37 to looped/cyclic peptides of protein M of SARS-CoV Urbani / Binding of serum 6 to linear peptides of protein X3 of SARS-CoV Urbani / Binding of serum 37 to linear peptides of protein X3 of SARS-CoV Urbani / Binding of serum 37 to looped/cyclic peptides of protein X3 of SARS-CoV Urbani / Binding of serum 6 to linear peptides of protein X4 of SARS-CoV Urbani / Binding of serum 37 to linear peptides of protein X4 of SARS-CoV Urbani / Binding of serum 37 to looped/cyclic peptides of protein X4 of SARS-CoV Urbani / Binding of serum 6 to linear peptides of protein X5 of SARS-CoV Urbani / Binding of serum 37 to linear peptides of protein X5 of SARS-CoV Urbani / Binding of serum 37 to looped/cyclic peptides of protein X5 of SARS-CoV Urbani / Binding of serum 6 to linear peptides of protein N of SARS-CoV Urbani / Binding of serum 37 to linear peptides of protein N of SARS-CoV Urbani / Binding of serum 6 to linear peptide (PEPSCAN-ELISA) / Binding of serum 1a to looped/cyclic peptides of protein N of SARS-CoV Urbani / Binding of serum 1b to looped/cyclic peptides of protein N of SARS-CoV Urbani / Binding of serum 2 to looped/cyclic peptides of protein N of SARS-CoV Urbani / Binding of serum 6 to looped/cyclic peptides of protein N of SARS-CoV Urbani / Binding of serum 37 to looped/cyclic peptides of protein N of SARS-CoV Urbani / Binding of serum 62 to looped/cyclic peptides of protein N of SARS-CoV Urbani / Binding of serum London to looped/cyclic peptides of protein N of SARS-CoV Urbani / Binding of serum SARS-green to looped/cyclic peptides of protein N of SARS-CoV Urbani: unit not given here.

Assay [2] concerns rabbit serum obtained by immunizing a rabbit with the SARS-CoV strain Frankfurt 1. The assay is classed as binding. On the set-up: Binding of a rabbit serum to linear peptides / Binding of a rabbit serum to looped peptides / Rabbit serum linear peptides / Rabbit serum looped peptides / Binding of a rabbit serum to linear peptides of protein N of SARS-CoV Urbani (Rabbit serum linear peptides) / Binding of a rabbit serum to looped/cyclic peptides of protein N of SARS-CoV Urbani (Rabbit serum looped peptides): unit not given here.

Assay [3] has as its system control sera (pooled serum of ten healthy LUMC hospital workers; commercial negative donor pooled serum from the Dutch bloodbank). The assay is classed as binding, human.

Take HLVDFQVTIAEILII: in assay [1], the “Binding of serum 1a to linear peptides of protein X3 of SARS-CoV Urbani” value stood at 0.8, the “Binding of serum 1a to looped/cyclic peptides of protein X3 of SARS-CoV Urbani” value worked out at 0.7, the “Binding of serum 1b to linear peptides of protein X3 of SARS-CoV Urbani” value is listed as 0.6 and the “Binding of serum 1b to looped/cyclic peptides of protein X3 of SARS-CoV Urbani” value turned out to be 0.4. Further, in assay [1], the “Binding of serum 2 to linear peptides of protein X3 of SARS-CoV Urbani” value stood at 0.7, the “Binding of serum 2 to looped/cyclic peptides of protein X3 of SARS-CoV Urbani” value turned out to be 0.6, the “Binding of serum 6 to linear peptides of protein X3 of SARS-CoV Urbani” value came to 0.5 and the “Binding of serum 6 to looped/cyclic peptides of protein X3 of SARS-CoV Urbani” value is given as 0.4. In assay [1], the “Binding of serum 37 to linear peptides of protein X3 of SARS-CoV Urbani” value was found to be 0.7, the “Binding of serum 37 to looped/cyclic peptides of protein X3 of SARS-CoV Urbani” value stood at 0.6, the “Binding of serum 62 to linear peptides of protein X3 of SARS-CoV Urbani” value turned out to be 0.6 and the “Binding of serum 62 to looped/cyclic peptides of protein X3 of SARS-CoV Urbani” value is 0.7. For the same sequence, in assay [1], the “Binding of serum London to linear peptides of protein X3 of SARS-CoV Urbani” value came to 0.6, the “Binding of serum London to looped/cyclic peptides of protein X3 of SARS-CoV Urbani” value came out at 0.2, the “Binding of serum SARS-green to linear peptides of protein X3 of SARS-CoV Urbani” value is on record as 0.4 and the “Binding of serum SARS-green to looped/cyclic peptides of protein X3 of SARS-CoV Urbani” value amounted to 0.2. Also, in assay [1], the “Binding of serum SARS-yellow to linear peptides of protein X3 of SARS-CoV Urbani” value was determined as 0.5 and the “Binding of serum SARS-yellow to looped/cyclic peptides of protein X3 of SARS-CoV Urbani” value was found to be 0.7. In addition, in assay [2], the “Rabbit serum linear peptides” value is 0.3 and the “Rabbit serum looped peptides” value stood at 0.3. Moreover, in assay [3], the “Binding of Control Serum Blood-Bank to Looped peptides of the protein X3 of SARS-CoV Urbani” value turned out to be 0.9, the “Binding of Control serum Blood-bank to linear peptides of the protein X3 of SARS-CoV Urbani” value worked out at 0.8, the “Binding of Control serum LUMC to linear peptides of the protein X3 of SARS-CoV Urbani” value amounted to 0.7 and the “Binding of Control serum LUMC to looped peptides of the protein X3 of SARS-CoV Urbani” value was determined as 0.7.

HRMCKYTQSTALQEL: in assay [1], the “Binding of serum 1a to linear peptides of protein X2” value is listed as 0.9, the “Binding of serum 1a to looped/cyclic peptides of protein X2 of SARS-CoV Urbani” value stood at 0.6, the “Binding of serum 1b to linear peptides of protein X2” value was found to be 0.8 and the “Binding of serum 1b to looped/cyclic peptides of protein X2 of SARS-CoV Urbani” value amounted to 0.6. For the same sequence, in assay [1], the “Binding of serum 2 to linear peptides of protein X2” value is recorded as 0.5, the “Binding of serum 2 to looped/cyclic peptides of protein X2 of SARS-CoV Urbani” value is reported as 0.4, the “Binding of serum 6 to linear peptides of protein X2” value amounted to 0.5 and the “Binding of serum 6 to looped/cyclic peptides of protein X2 of SARS-CoV Urbani” value was determined as 1.0. In assay [1], the “Binding of serum 37 to linear peptides of protein X2” value turned out to be 0.8, the “Binding of serum 37 to looped/cyclic peptides of protein X2 of SARS-CoV Urbani” value turned out to be 0.5, the “Binding of serum 62 to linear peptides of protein X2” value was determined as 0.8 and the “Binding of serum 62 to looped/cyclic peptides of protein X2 of SARS-CoV Urbani” value was 0.6. Besides, in assay [1], the “Binding of serum London to linear peptides of protein X2” value is recorded as 0.5, the “Binding of serum London to looped/cyclic peptides of protein X2 of SARS-CoV Urbani” value came out at 1.5, the “Binding of serum SARS-green to linear peptides of protein X2” value turned out to be 0.8 and the “Binding of serum SARS-green to looped/cyclic peptides of protein X2 of SARS-CoV Urbani” value is 0.5. In assay [1], the “Binding of serum SARS-yellow to linear peptides of protein X2” value is given as 0.8 and the “Binding of serum SARS-yellow to looped/cyclic peptides of protein X2 of SARS-CoV Urbani” value was found to be 0.5. Besides, in assay [2], the “Binding of a rabbit serum to linear peptides” value came to 0.3 and the “Binding of a rabbit serum to looped peptides” value was 0.4. Moreover, in assay [3], the “Binding of Control Serum Blood-Bank to Looped peptides” value is 0.8, the “Binding of Control serum Blood-bank to linear peptides” value is recorded as 0.9, the “Binding of Control serum LUMC to linear peptides” value is on record as 0.7 and the “Binding of Control serum LUMC to looped peptides” value turned out to be 0.6.

The values are drawn from patent US20070128217A1 (priority 2003, published 2007).
